# Experimental data published in US20230085307A1, “PYRIDAZINONE COMPOUND AND HERBICIDE” (NISSAN CHEMICAL CORPORATION, priority 2019, published 2023).
# Assays:
# southern crabgrass [1] = test: Test Example 4: herbicidal effect by soil treatment (Table 19, symbol F); assay type: in vivo, southern crabgrass (Digitaria ciliaris); details: amount of applied herbicide 320 g/ha
# Procedure, shortened: (§1)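 Applied as a water-diluted emulsion, the compound was sprayed onto soil covering newly sown seeds. Evaluation came three weeks after application, in a greenhouse held at 25° C. to 30° C.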
# wild oat [2] = test: Test Example 4: herbicidal effect by soil treatment (Table 19, symbol I); assay type: in vivo, wild oat (Avena fatua); details: amount of applied herbicide 320 g/ha
# Procedure, shortened: as §1
# persian speedwell [3] = test: Test Example 5: herbicidal effect by foliage application, plastic box (Table 20, symbol R); assay type: in vivo, Persian speedwell (Veronica persica); details: foliage application, AAH 320 g/ha, evaluated three weeks after application
# Procedure, shortened: (§2)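 Sow seeds spot-wise in sterilized diluvial soil; cover with ~1.5 cm soil. Grow 14 days in greenhouse, 25° C. to 30° C. Spray foliage with emulsion diluted to predetermined amount. Rate effect after 3 weeks.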
# barnyard grass [4] = test: Test Example 5: herbicidal effect by foliage application, plastic box (Table 20, symbol H); assay type: in vivo, barnyard grass (Echinochloa crus-galli); details: foliage application, AAH 320 g/ha, evaluated three weeks after application
# Procedure, shortened: as §2
# windgrass [5] = test: Test Example 4: herbicidal effect by soil treatment (Table 19, symbol L); assay type: in vivo, windgrass (Apera spica-venti); details: amount of applied herbicide 320 g/ha
# Procedure, shortened: as §1
# blackgrass [6] = test: Test Example 5: herbicidal effect by foliage application, plastic box (Table 20, symbol J); assay type: in vivo, blackgrass (Alopecurus myosuroides); details: foliage application, AAH 320 g/ha, evaluated three weeks after application
# Procedure, shortened: as §2
# lambsquarters [7] = test: Test Example 4: herbicidal effect by soil treatment (Table 19, symbol O); assay type: in vivo, lambsquarters (Chenopodium album); details: amount of applied herbicide 320 g/ha
# Procedure, shortened: as §1
# velvetleaf [8] = test: Test Example 4: herbicidal effect by soil treatment (Table 19, symbol M); assay type: in vivo, velvetleaf (Abutilon theophrasti); details: amount of applied herbicide 320 g/ha
# Procedure, shortened: as §1
# lambsquarters [9] = test: Test Example 5: herbicidal effect by foliage application, plastic box (Table 20, symbol O); assay type: in vivo, lambsquarters (Chenopodium album); details: foliage application, AAH 320 g/ha, evaluated three weeks after application
# Procedure, shortened: as §2
# rice flat sedge = test: Test Example 3: herbicidal effect by foliage application, Wagner pot (Table 18, symbol E); assay type: in vivo, rice flat sedge (Cyperus iria); details: amount of applied herbicide 320 g/ha
# Procedure, shortened: (§3)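 Plants were sown in alluvial soil held under 0.1–0.5 cm standing water and grown 14 days in a greenhouse at 25–30 °C. An emulsifiable formulation, water-diluted to the set dose, was then sprayed onto the foliage, and effects were scored three weeks later using previously defined criteria.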
# blackgrass [10] = test: Test Example 4: herbicidal effect by soil treatment (Table 19, symbol J); assay type: in vivo, blackgrass (Alopecurus myosuroides); details: amount of applied herbicide 320 g/ha
# Procedure, shortened: as §1
# green foxtail [11] = test: Test Example 5: herbicidal effect by foliage application, plastic box (Table 20, symbol G); assay type: in vivo, green foxtail (Setaria viridis); details: foliage application, AAH 320 g/ha, evaluated three weeks after application
# Procedure, shortened: as §2
# redroot pigweed [12] = test: Test Example 4: herbicidal effect by soil treatment (Table 19, symbol N); assay type: in vivo, redroot pigweed (Amaranthus retroflexus); details: amount of applied herbicide 320 g/ha
# Procedure, shortened: as §1
# Italian ryegrass [13] = test: Test Example 5: herbicidal effect by foliage application, plastic box (Table 20, symbol K); assay type: in vivo, Italian ryegrass (Lolium multiflorum); details: foliage application, AAH 320 g/ha, evaluated three weeks after application
# Procedure, shortened: as §2
# barnyard grass [14] = test: Test Example 4: herbicidal effect by soil treatment (Table 19, symbol H); assay type: in vivo, barnyard grass (Echinochloa crus-galli); details: amount of applied herbicide 320 g/ha
# Procedure, shortened: as §1
# Italian ryegrass [15] = test: Test Example 4: herbicidal effect by soil treatment (Table 19, symbol K); assay type: in vivo, Italian ryegrass (Lolium multiflorum); details: amount of applied herbicide 320 g/ha
# Procedure, shortened: as §1
# chickweed [16] = test: Test Example 5: herbicidal effect by foliage application, plastic box (Table 20, symbol P); assay type: in vivo, common chickweed (Stellaria media); details: foliage application, AAH 320 g/ha, evaluated three weeks after application
# Procedure, shortened: as §2
# false cleavers = test: Test Example 4: herbicidal effect by soil treatment (Table 19, symbol Q); assay type: in vivo, false cleavers (Galium spurium); details: amount of applied herbicide 320 g/ha
# Procedure, shortened: as §1
# green foxtail [17] = test: Test Example 4: herbicidal effect by soil treatment (Table 19, symbol G); assay type: in vivo, green foxtail (Setaria viridis); details: amount of applied herbicide 320 g/ha
# Procedure, shortened: as §1
# chickweed [18] = test: Test Example 4: herbicidal effect by soil treatment (Table 19, symbol P); assay type: in vivo, common chickweed (Stellaria media); details: amount of applied herbicide 320 g/ha
# Procedure, shortened: as §1
# southern crabgrass [19] = test: Test Example 5: herbicidal effect by foliage application, plastic box (Table 20, symbol F); assay type: in vivo, southern crabgrass (Digitaria ciliaris); details: foliage application, AAH 320 g/ha, evaluated three weeks after application
# Procedure, shortened: as §2
# redroot pigweed [20] = test: Test Example 5: herbicidal effect by foliage application, plastic box (Table 20, symbol N); assay type: in vivo, redroot pigweed (Amaranthus retroflexus); details: foliage application, AAH 320 g/ha, evaluated three weeks after application
# Procedure, shortened: as §2
# windgrass [21] = test: Test Example 5: herbicidal effect by foliage application, plastic box (Table 20, symbol L); assay type: in vivo, windgrass (Apera spica-venti); details: foliage application, AAH 320 g/ha, evaluated three weeks after application
# Procedure, shortened: as §2
# velvetleaf [22] = test: Test Example 5: herbicidal effect by foliage application, plastic box (Table 20, symbol M); assay type: in vivo, velvetleaf (Abutilon theophrasti); details: foliage application, AAH 320 g/ha, evaluated three weeks after application
# Procedure, shortened: as §2
# persian speedwell [23] = test: Test Example 4: herbicidal effect by soil treatment (Table 19, symbol R); assay type: in vivo, Persian speedwell (Veronica persica); details: amount of applied herbicide 320 g/ha
# Procedure, shortened: as §1
# Chinese sprangletop = test: Test Example 3: herbicidal effect by foliage application, Wagner pot (Table 18, symbol D); assay type: in vivo, chinese sprangletop (Leptochloa chinensis); details: amount of applied herbicide 320 g/ha
# Procedure, shortened: as §3
# wild oat [24] = test: Test Example 5: herbicidal effect by foliage application, plastic box (Table 20, symbol I); assay type: in vivo, wild oat (Avena fatua); details: foliage application, AAH 320 g/ha, evaluated three weeks after application
# Procedure, shortened: as §2
# barnyard grass [25] = test: Test Example 3: herbicidal effect by foliage application, Wagner pot (Table 18, symbol H); assay type: in vivo, barnyard grass (Echinochloa crus-galli); details: amount of applied herbicide 320 g/ha
# Procedure, shortened: as §3
# late watergrass = test: Test Example 1: herbicidal activity, application before weed generation under submerged conditions (Table 16, symbol A); assay type: in vivo, late watergrass (Echinochloa oryzicola); details: 320 g/ha applied herbicide
# Procedure, shortened: (§4)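 Submerged Wagner pots (alluvial soil, 4 cm water) sown with weed seeds and planted with 2.5-leaf rice seedlings; emulsifiable concentrate diluted in water applied to water surface on sowing day. Held in greenhouse at 25-30 °C; injury scored 0-5 by herbicidal rate after three weeks.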
# oval-leafed pondweed = test: Test Example 1: herbicidal activity, application before weed generation under submerged conditions (Table 16, symbol C); assay type: in vivo, oval-leafed pondweed (Monochoria vaginalis); details: 320 g/ha applied herbicide
# Procedure, shortened: as §4
# Japanese bulrush = test: Test Example 1: herbicidal activity, application before weed generation under submerged conditions (Table 16, symbol B); assay type: in vivo, Japanese bulrush (Schoenoplectus juncoides); details: 320 g/ha applied herbicide
# Procedure, shortened: as §4
smiles,measurement,setting,value
Cc1nn(C)c(=O)c(-c2c(-c3cccc(O)c3)sc3ccc(F)cc23)c1O [2-336],herbicidal effect on F: southern crabgrass,southern crabgrass [1],3 (Herbicidal rate of 40% or more and less than 70%)
same,herbicidal effect on I: wild oat,wild oat [2],0 (Herbicidal rate of 5% or less (almost no effect))
same,"R: persian speedwell, herbicidal effect (criteria 0-5)",persian speedwell [3],5 (Herbicidal rate of 90% or more (almost completely withered))
same,"H: barnyard grass, herbicidal effect (criteria 0-5)",barnyard grass [4],1 (Herbicidal rate of 5% or more and less than 20%)
same,herbicidal effect on L: windgrass,windgrass [5],0 (Herbicidal rate of 5% or less (almost no effect))
same,"J: blackgrass, herbicidal effect (criteria 0-5)",blackgrass [6],3 (Herbicidal rate of 40% or more and less than 70%)
same,herbicidal effect on O: lambsquarters,lambsquarters [7],3 (Herbicidal rate of 40% or more and less than 70%)
same,herbicidal effect on M: velvetleaf,velvetleaf [8],3 (Herbicidal rate of 40% or more and less than 70%)
same,"O: lambsquarters, herbicidal effect (criteria 0-5)",lambsquarters [9],4 (Herbicidal rate of 70% or more and less than 90%)
same,herbicidal effect on E: rice flat sedge,rice flat sedge,3 (Herbicidal rate of 40% or more and less than 70%)
same,herbicidal effect on J: blackgrass,blackgrass [10],0 (Herbicidal rate of 5% or less (almost no effect))
same,"G: green foxtail, herbicidal effect (criteria 0-5)",green foxtail [11],5 (Herbicidal rate of 90% or more (almost completely withered))
same,herbicidal effect on N: redroot pigweed,redroot pigweed [12],5 (Herbicidal rate of 90% or more (almost completely withered))
same,"K: Italian ryegrass, herbicidal effect (criteria 0-5)",Italian ryegrass [13],4 (Herbicidal rate of 70% or more and less than 90%)
same,herbicidal effect on H: barnyard grass,barnyard grass [14],4 (Herbicidal rate of 70% or more and less than 90%)
same,herbicidal effect on K: Italian ryegrass,Italian ryegrass [15],3 (Herbicidal rate of 40% or more and less than 70%)
same,"P: chickweed, herbicidal effect (criteria 0-5)",chickweed [16],5 (Herbicidal rate of 90% or more (almost completely withered))
same,herbicidal effect on Q: false cleavers,false cleavers,0 (Herbicidal rate of 5% or less (almost no effect))
same,herbicidal effect on G: green foxtail,green foxtail [17],5 (Herbicidal rate of 90% or more (almost completely withered))
same,herbicidal effect on P: chickweed,chickweed [18],3 (Herbicidal rate of 40% or more and less than 70%)
same,"F: southern crabgrass, herbicidal effect (criteria 0-5)",southern crabgrass [19],5 (Herbicidal rate of 90% or more (almost completely withered))
same,"N: redroot pigweed, herbicidal effect (criteria 0-5)",redroot pigweed [20],5 (Herbicidal rate of 90% or more (almost completely withered))
same,"L: windgrass, herbicidal effect (criteria 0-5)",windgrass [21],4 (Herbicidal rate of 70% or more and less than 90%)
same,"M: velvetleaf, herbicidal effect (criteria 0-5)",velvetleaf [22],1 (Herbicidal rate of 5% or more and less than 20%)
same,herbicidal effect on R: persian speedwell,persian speedwell [23],5 (Herbicidal rate of 90% or more (almost completely withered))
same,herbicidal effect on D: Chinese sprangletop,Chinese sprangletop,0 (Herbicidal rate of 5% or less (almost no effect))
same,"I: wild oat, herbicidal effect (criteria 0-5)",wild oat [24],0 (Herbicidal rate of 5% or less (almost no effect))
same,herbicidal effect on H: barnyard grass,barnyard grass [25],5 (Herbicidal rate of 90% or more (almost completely withered))
same,Herbicidal effect on A: late watergrass (grade 0-5),late watergrass,0 (Herbicidal rate of 5% or less (almost no effect))
same,Herbicidal effect on C: oval-leafed pondweed (grade 0-5),oval-leafed pondweed,0 (Herbicidal rate of 5% or less (almost no effect))
same,Herbicidal effect on B: Japanese bulrush (grade 0-5),Japanese bulrush,3 (Herbicidal rate of 40% or more and less than 70%)
